“Also recorded” adds a separate entry of the source. Where no end group is shown, it is not given here.
How the values were obtained:
Type in all cases: cell-based
[1] = system: whole-cell swelling-activated currents in adult rat astrocytes; assay: Whole-cell (Nystatin perforated patch) currents in adult rat astrocytes, isotonic and hypotonic swelling
Method: It is considered that part of the swelling activated currents are attributable to SACs. To illustrate this embodiment, adult rat astrocytes were cultured as described above. Whole cell current was measured by the Nystatin perforated patch. Bath saline was the same as in Example 2. Pipette saline consisted of: KCl 80 mM, K2SO4 30 mM, NaCl 10 mM, MgSO4 3 mM, CaCl20.13 mM, EGTA 0.23 mM and Hepes 10 mM, pH 7.3. Nystatin was dissolved in pipette saline to a final concentration of […]. After patch formation, access resistance was allowed to drop to ˜15 MW (uncompensated), after which the series resistance compensation was set at ˜65%, and prediction was set to ˜75%. Whole cell capacitance measurements ranged from ˜25–50 pF. Whole cell currents were monitored by either a voltage step protocol shown in FIG. 7, or by 600 ms voltage ramps. During hypotonic swelling the cell was perfused initially with isotonic saline (bath saline with 160 mM mannitol replacing 80 mM NaCl) before switching to hypotonic saline (isotonic saline minus 140 mM mannitol). The BPS-8 perfusion system was used to rapidly (<200 ms) change the bathing solution. Peak currents were measured at 3–5 ms into voltage steps.

[2] = system: stretch-activated channels (SACs); assay: Outside-out patch clamp of stretch-activated channels in adult rat astrocytes
Method: This embodiment describes the effect of the peptide GsMTx-4 variant (SEQ ID NO:1) on SACs. To illustrate this, adult rat astrocytes which are known to have SACs, were used. Adult rat astrocytes were cultured according to standard methods. Briefly, activated adult astrocytes isolated from gelatin-sponge implants from adult Sprague-Dawley rat brains obtained according to the method of Langan et al. (1995, Glia, 14:174–184) were used at passage numbers 2–4. Astrocytes were maintained in DMEM, 10% fetal bovine serum and 1% Penicillin/Streptomycin and were used in experiments between 2 and 5 days after passage. Cells between passage 4 and 35 expressed SACs with the same properties Both stellate process bearing cells and flat polygonal (fibroblast-like) cells were used.
The cultured astrocytes were used for single channel and whole cell recorndings. For single channel patch clamp, patch voltage was controlled by an Axopatch 200B (Axon Instruments, Calif.) and currents were recorded directly onto computer disk via a Labmaster DMA Ver. B (Scientific Instruments, Calif.) board controlled by pClamp6-Clampex acquisition software (Axon Instruments, California). Currents were sampled at 10 KHz and low-pass filtered at 2 KHz through the 4 pole Bessel filter on the Axopatch 200B. Experimental voltage protocols were controlled by pClamp6-Clampex. All potentials are defined with respect to the extracellular surface.
Electrodes were pulled on a Model PC-84 pipette puller (Brown-Flaming Instruments, Calif.), painted with Sylgard 184 (Dow Corning Corp. Midland Mich.) and fire polished. Electrodes were filled with KCl saline (KCl 140 mM, EGTA 5 mM, MgSO4 2 mM, Hepes 10 mM, pH 7.3) and had resistances ranging from 3–8 MWBath saline consisted of NaCl 140 mM, KCl 5 mM, MgSO4 1 mM, CaCl2 1 mM, glucose 6 mM and Hepes 10 mM, pH 7.3.
Pressure and suction were applied to the pipette by a pressure clamp. Pressure values represent pressure in the pipette, i.e., the intracellular side of the membrane in outside-out patches. Suction applied to a cell-attached patch has the same sign as pressure applied to an outside-out patch. The rise time of pressure changes at the tip were determined by monitoring the rate of current change when pressure steps were applied to an electrode containing 150 mM KCl solution and placed in a water bath. The t10-90 was ˜5 ms as determined by exponential fits to the current decay. Perfusion of toxin samples was performed by a pressurized bath perfusion system BPS-8 (ALA scientific instruments, NY) with 8 separate channels.
Off-line data analysis was performed with pClamp6 analysis software and Origin 5.0. Maximal unitary channel currents were determined via Guassian fits to the peaks of all points amplitude histograms generated from records containing 1–3 channels. […] Some of these records were analyzed by determining all of the step-like changes in current during the pressure application and selecting the average maximal current level as the unitary current. The data analyzed by this method was in good agreement with the unitary current levels determined by analysis of all points amplitude histograms from single channel patches.
The outside out patches from adult astrocytes as described above were used for testing the HPLC fractions obtained in Example 1. The HPLC fractions were lyophilized, redissolved at a 1:1000 dilution and perfused onto outside out patches. […] The fraction containing the single peak in FIG. 1D was then tested for activity against SACs. […] The patch was held at −50 mV, and the pressure pulse is shown above the records.
The entire experiment is comprised of 60 pressure steps: steps 1–20 occur before GsMTx-4 application; steps 21–38 while GsMTx-4 is being perfused; steps 39–60 occur during washout. Each 500 ms pressure step was separated by 1.5 seconds at 0 pressure.
The association rate of the toxin was determined by applying GsMTx-4 to an outside-out patch while the channels were activated by stretch (FIG. 5). […]

[3] = system: MSC currents in normal rat kidney cells; assay: Outside-out patch clamp of mechanosensitive channel currents in normal rat kidney cells; settings: 5 μM
Method: NRK cell culture: Normal rat kidney cells (CCA identifier is 49F) at passages 20–25, were maintained in DMEM, 5% fetal bovine serum and 1%
Penicillin/Streptomycin. Cells were plated onto poly-L-lysine coated cover-slips, and used in experiments between 2 and 6 days after passage.
Electrophysiology: An Axopatch 200B (Axon Instruments, California) was used for patch clamping, while experimental protocols and data acquisition were controlled by Axon Instruments pClamp8 software via a Digidata 1322A acquisition system. Currents were sampled at 10 KHz and low-pass filtered at 2 KHz through the 4 pole Bessel filter on the Axopatch 200B. All potentials are defined with respect to the extracellular surface. Electrodes were pulled on a Model PC-84 pipette puller (Brown-Flaming Instruments, California), painted with Sylgard 184 (Dow Corning Corp. Midland Mich.) and fire polished. Electrodes were filled with KCl saline (KCl 140 mM, EGTA 5 mM, MgSO4 2 mM, Hepes 10 mM, pH 7.3) and had resistances ranging from 10–20 MΩ. Bath saline consisted of NaCl—140 mM, KCl—5 mM, CaCl2—2 mM, MgSO4—0.5 mM, glucose—6 mM and Hepes—10 mM, pH 7.3. Pressure and suction were applied to the pipette by a HSPC-1 pressure clamp (ALA Scientific Instruments, New York) controlled by the pClamp software. Perfusion of toxin samples was performed by a pressurized local perfusion system BPS-8 (ALA scientific instruments, NY) with 8 separate channels. Off-line data analysis was performed with Clampfit and Origin 6.1 software.

Which “effect on whole-cell current in isotonic saline” value ([1]; CsCl, hyperpolarized potentials) does the source give for [Cl-].[Cs+] [CsCl, reference compound] here?
The value was “significant decrease in current”.

Which “shift in reversal potential of swelling-activated current” value ([1]; 50 μM DIDS, average n=6) does the source give for O=S(=O)(O)c1cc(N=C=S)ccc1C=Cc1ccc(N=C=S)cc1S(=O)(=O)O [DIDS, reference compound] here?
The value was −33 mV.

And the “effect on swelling-activated current” value ([1]; 50 μM DIDS, especially at depolarized potentials)?
The value was “significant reduction in current”.

For “GCLEFWWKCNPNDDKCCRPKLKCSKLFKLCNFSSG (not fully specified (C-terminus); ends and bridges not checked; listed as Grammastola spatulata) [SEQ ID NO.1, 35 amino acids with C-term glycine amide]”, which “SAC blocking activity” value [2] is on record?
The value was “has SAC blocking activity”.

How did the “block of mechanosensitive channels” value [3] turn out when “cloned: GsMTx4 liberated by thrombin from a thioredoxin fusion protein, with three extra amino acids at the N-terminus (SGMGCLEFWWKCNPNDDKCCRPKLKCSKLFKLCNFSF; ends and bridges not checked; cysteine pairing not given here)” was run?
Its value is “blocked; also recorded: active in blocking SACs”.

What about the “block of mechanically sensitive current” value ([3]; outside-out patches held at −50 mV) of the same molecule?
Its value is “greater than 75%”.

Which “block of mechanosensitive channels” value [3] does the source give for “synthetic: chemically synthesized GsMTx4 with a C-terminal phenylalanine, folded with GSH/GSSG (GCLEFWWKCNPNDDKCCRPKLKCSKLFKLCNFSF-NH2; disulfide (positions not given here); not fully specified (bridges); also: three intramolecular disulfide bonds, pairing not given here)” here?
The value was “active in blocking SACs”.

What about the “block of mechanosensitive channels” value ([3]; listed as synthetic peptide) of the same molecule?
Its value is “blocked”.
